Measurements taken from US20250221930A1, “A COMPOSITION COMPRISING LIPID NANOPARTICLES AND AN ANTIFUNGAL POLYENE” (INSTITUT NATIONAL DE LA SANTÉ ET DE LA RECHERCHE MÉDICALE, priority 2022, published 2025).
Values after ≈ are worked out from the molar mass of the structure shown.

What was measured:
Format in all cases: cell-based
[1] = system: Cryptococcus neoformans; experiment: EUCAST MICs of AmB alone and AmB formulated in LNPs
Experimental: This medium was sterilized using a 0.22 μm pore-size filter.
AmB powder (Sigma-Aldrich) was dissolved in dimethyl sulfoxide to obtain a stock solution at 1000 mg/L, stored at −80° C. for six months.
On the day of use, AmB and freshly made AmB-loaded LNPs were diluted in RPMI medium to obtain the desired concentrations. The AmB-loaded LNPs were prepared as detailed in Example 5.
MICs of AmB alone and AmB formulated in LNPs were evaluated according to the European Committee on Antimicrobial Susceptibility Testing (EUCAST) guidelines. Briefly, MICs were determined by adding 100 μL of two-fold dilutions of AmB (0.008 to 4 mg/L) and LNPs-AmB (0.04 to 1024 mg/L) in 96-well plates. One hundred microliters of a fungal suspension at a final concentration of 10^5 CFU/mL was added to the wells, and the plates were incubated for 48 h at 30° C. MICs, defined as the lowest concentration of AmB inhibiting 90% of the growth of the fungal strain, were read after […] of incubation by measuring absorbance at 530 nm with an Infinite M200 Pro microplate reader (Tecan®, France). Three experiments were performed for each strain.

[2] = system: Rhizopus arrhizus 1; experiment: Checkerboard MICs of AmB, ISA and PEG15HS in solution; settings: RPMI, 24 h at 37° C.
Experimental: AmB minimum inhibitory concentrations (MIC) of each strain of Mucorales was measured in RPMI in the presence of different concentrations of ISA or PEG15HS as described by the EUCAST broth microdilution antifungal susceptibility test methodology with modification for the checkerboard procedure. Checkerboards were performed by adding 100 μL of two-fold dilutions of AmB (0.008 to 4 mg/L) and ISA (0.008 to 4 mg/L) or PEG15HS (0.04 to 2752 mg/L) in 96 well plates. One hundred microliters of a spore suspension at a concentration of 105 spores/mL were added to the wells, and the plates were incubated for 24 h at 37° C. […] Three experiments were performed for each strain.
AmB MIC of each strain of Mucorales was measured in RPMI in the presence of different concentrations of ISA and a constant concentration of PEG15HS (100 times the concentration of AmB) as described by the EUCAST broth microdilution antifungal susceptibility test methodology with modification for the checkerboard procedure. Checkerboards were performed by adding 100 μL of two-fold dilutions of AmB (0.008 to 4 mg/L)+PEG15HS (0.8 to 400 mg/L) and ISA (0.008 to 4 mg/L) in 96 well plates. One hundred microliters of a spore suspension at a concentration of 105 spores/mL were added to the wells, and the plates were incubated for 24 h at 37° C. […] Three experiments were performed for each strain. […]

[3] = system: Aspergillus fumigatus; experiment: EUCAST MICs of AmB, ISA, AmB-loaded LNPs and AmB-ISA-loaded LNPs; settings: 48 h at 37° C.
Experimental: (§1) Briefly, a mass (80-120 mg) of an oil phase consisting of triglycerides (Labrafac®, or tributyrin in different mass ratios, i.e. 100% Labrafac® to 100% tributyrin) was supplemented with AmB (0,025 to 0.2 mg) and ISA (0.25 to 5 mg) and then mixed with 80 to 120 mg of PEG15HS (Solutol HS15®) and 500 to 800 μl of water to form an oil-in-water emulsion. This emulsion was then heated to 85° C., to obtain a water-in-oil emulsion, and then cooled to 40° C. Three such temperature cycles were performed and the system was then fast cooled to 4° C. The formulated nanoparticles were then characterized by size distribution and mean zeta potential measurements. Examples of formulations of LNPs loaded with AmB and AmB-ISA are detailed in Table 5:
Two reference strains (ATCC 16424 and ATCC 204305) and a clinical azole-resistant strain (AfR2) of Aspergillus fumigatus were used.
(§2) MICs of AmB in solution, ISA in solution, AmB-loaded LNPs, and AmB-ISA-loaded LNPs were evaluated according to the European Committee on Antimicrobial Susceptibility Testing (EUCAST) guidelines. Briefly, MICs were determined by adding 100 μL of two-fold dilutions of AmB in solution, ISA in solution, AmB-LNPs or AmB-ISA-LNPs (0.008 to 4 mg/L) in 96-well plates. One hundred microliters of a spore suspension at a concentration of 105 spores/mL were added to the wells, and the plates were incubated for 24 h (Mucorales) or 48 h (A. fumigatus) at 37° C. […] Three experiments were performed for each strain.

[4] = system: Twelve clinical isolates of Mucorales; experiment: Checkerboard AmB MIC with surfactant in solution, statements over all isolates
Experimental: Twelve clinical isolates of Mucorales identified by ARNr sequencing were used: Rhizopus arrhizus (5), Rhizopus microsporus (1), Lichtheimia corymbifera (3), Lichtheimia ramosa (1), Mucor circinelloides (1), Rhizomucor pusillus (1). Isolates were subcultured from frozen stocks (−80° C.) on 75 cm^3 flasks containing 15 mL of Sabouraud dextrose agar (Sigma-Aldrich, St. Quentin Fallavier, France) during 3 days at 37° C. Spores were collected by flooding the flask with 10 ml of sterile water. The suspensions were filtered on nylon filter (Millipore, Carrigtwohill, Ireland) with pore size of 11 μm to remove hyphal elements. The concentration of the spore suspensions was then adjusted in sterile water to obtain inocula of 2×10^5 spores/mL. […]
AmB minimum inhibitory concentrations (MIC) of each strain of Mucorales was measured in RPMI the presence of different concentrations of surfactant as described by the EUCAST broth microdilution antifungal susceptibility test methodology with modification for the checkerboard procedure. […]
In equation 1, MIC0 refers to the AmB MIC measured without surfactants and MIC∞ is the lowest AmB MIC measured in the presence of surfactant. The maximal ratio in AmB MIC decrease defined as maximal efficacy (Emax) was calculated as the ratio of MIC0/MIC∞. […] These parameters were evaluated using WinNonlin software (version 6.2, Certara, NJ, USA) as described by Chauzy et al.

[5] = system: Lichtheimia corymbifera; experiment: EUCAST MICs of AmB, ISA, AmB-loaded LNPs and AmB-ISA-loaded LNPs; settings: 24 h at 37° C.
Experimental: as §1
(§3) Rhizopus arrhizus 1, Lichtheimia corymbifera and Lichtheimia ramosa strains were used. These correspond to the most frequently encountered species in human mucormycosis. These three strains were isolated from patients suffering from pulmonary mucormycosis.
as §2

[6] = system: Lichtheimia ramosa; experiment: as above; settings: 24 h at 37° C.
Experimental: as §1, §3, §2

[7] = system: Rhizopus arrhizus 1; experiment: as above; settings: 24 h at 37° C.
Experimental: as §1, §3, §2

In the case of C[C@@H]1[C@H](O)[C@@H](C)/C=C/C=C/C=C/C=C/C=C/C=C/C=C/[C@H](O[C@@H]2O[C@H](C)[C@@H](O)[C@H](N)[C@@H]2O)C[C@@H]2O[C@](O)(C[C@@H](O)C[C@@H](O)[C@H](O)CC[C@@H](O)C[C@@H](O)CC(=O)O[C@H]1C)C[C@H](O)[C@H]2C(=O)O [AmB, amphotericin B], the “effect on growth of the cryptococci at concentrations below the MIC” value [1] is reported as “had no effect on the growth profile”, the MIC ([1]; all the isolates (eight clinical strains)) is reported as 0.25 to 1 mg/L and the MIC ([1]; strain C1, 90% growth inhibition, absorbance at 530 nm) is reported as 0.5 mg/L (≈ 0.541 µM). The MIC ([1]; strain C2, 90% growth inhibition, absorbance at 530 nm) was 0.25 mg/L (≈ 0.271 µM), the MIC ([1]; strain C3, 90% growth inhibition, absorbance at 530 nm) was 0.5 mg/L (≈ 0.541 µM) and the MIC ([1]; strain C4, 90% growth inhibition, absorbance at 530 nm) was 0.5 mg/L (≈ 0.541 µM). The MIC ([1]; strain C5, 90% growth inhibition, absorbance at 530 nm) was 1 mg/L (≈ 1.08 µM), the MIC ([1]; strain C6, 90% growth inhibition, absorbance at 530 nm) was 1 mg/L (≈ 1.08 µM) and the MIC ([1]; strain C7, 90% growth inhibition, absorbance at 530 nm) was 1 mg/L (≈ 1.08 µM). The MIC ([1]; strain C8, 90% growth inhibition, absorbance at 530 nm) was 1 mg/L (≈ 1.08 µM), the “MIC of AmB” value [2] was 1 mg/L and the “MIC (AmB)” value ([3]; A. fumigatus 20 (ATCC 204305)) was 2 mg/L (≈ 2.16 µM). For the same compound, the “MIC (AmB)” value ([3]; A. fumigatus R2 (clinical azole-resistant strain AfR2)) was 2 mg/L (≈ 2.16 µM), the “MIC (AmB)” value ([3]; Aspergillus fumigatus 16 (ATCC 16424)) was 2 mg/L (≈ 2.16 µM) and the “MIC (agent alone)” value [4] was “less than 1 mg/L”. The “MIC (AmB)” value [5] was 1 mg/L (≈ 1.08 µM), the “MIC (AmB)” value [6] was 1 mg/L (≈ 1.08 µM) and the “MIC (AmB)” value [7] was 1 mg/L (≈ 1.08 µM).
